Assay results reported in patent US20240165108A1, “NOVEL USE” (GlaxoSmithKline Intellectual Property Development Limited, priority 2022, published 2024).

Columns and labels:
GPR91 [1] = target: T1, GPR91 (Homo sapiens, UniProt Q9BXA5); test: IP1 accumulation; format: cell-based; parameters: host or cells: LUVA; details: read-out: Test compound pIC50, IP1 (converted)
T1 sequence (Q9BXA5 1-334): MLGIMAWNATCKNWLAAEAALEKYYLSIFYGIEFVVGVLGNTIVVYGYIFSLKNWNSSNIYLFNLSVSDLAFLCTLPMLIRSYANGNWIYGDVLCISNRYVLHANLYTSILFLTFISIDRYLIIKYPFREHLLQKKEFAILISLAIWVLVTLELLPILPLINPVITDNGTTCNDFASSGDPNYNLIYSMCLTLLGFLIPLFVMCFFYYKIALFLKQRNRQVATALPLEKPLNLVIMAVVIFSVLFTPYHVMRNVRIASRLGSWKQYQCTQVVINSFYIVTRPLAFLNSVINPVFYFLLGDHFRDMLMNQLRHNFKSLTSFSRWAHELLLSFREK
Excerpt: (§1) GPR91 inhibition can be measured according to the art. For example, GPR91 inhibition may be measured by testing a compound in a G-protein functional assay such as Calcium flux, IP1 accumulation and GTPyS. GPR91 inhibition may be measured by testing a compound in phenotypic assays which measures a cytokine response that is relevant to the indication.

human hair follicles [2] = test: Microscopic hair cycle staging in ex vivo hair follicle organ culture; format: cell-based; details: donors with healthy hair follicles
Excerpt: Compounds, at the concentrations indicated, are present throughout the duration of the hair follicle culture at 0.1% DMSO.

GPR91 [3] = target: T1, GPR91; test: Calcium flux in HEK293; format: cell-based; details: read-out: Test compound pIC50, Calcium flux in HEK293 (converted)
Excerpt: as §1

human hair follicles [4] = test: RNA sequencing of ex vivo cultured hair follicles; format: cell-based; details: affected scalp regions, 5 nM, 24 hours
Description: RNA extraction, sequencing and analysis were performed as follows; RNA from n=2-3 hair follicles per group was extracted using […]® PicoPure® RNA Isolation Kit (ThermoFisher) including a Dnase digestions step using the Rnase-Free Dnase Set from Qiagen and stored at −80 degrees Celsius until analysed. RNA concentration, purity and integrity were assessed before sequencing. Sequencing was performed on a NovaSeq 6000 using 2×100 bp read length with an output of approximately 30 M clusters (6 Gb per sample). Demultiplexing of the sequencing reads was performed with Illumina bcl2fastq (2.20).
Briefly, DESeq2 first creates a pseudo-reference sample (row-wise geometric mean) and calculates the ratio of each sample to this reference. Then, the normalization factor for each sample (size factor) is calculated using the median value of all ratios for a given sample. Normalized count values are created by dividing each raw count value in a given sample by that sample's normalization factor. Finally, DESeq2 calculates p values and adjusted p values for genes of two groups by allowing the shrinkage of the log 2 fold changes when the information for a gene is low (low counts or high dispersion values). For manual calculation of fold change (FC) between two groups, the ratio of the normalized read counts was used. And FC is considered relevant or significant if it is greater of equal to 2 (upregulation) or smaller that or equal to 0.5 (downregulation).

GPR91 [5] = target: T1, GPR91; test: Succinate-stimulated secretion of PGD2 and cytokines/chemokines in LUVA cells; format: cell-based; parameters: host or cells: LUVA; details: LUVA cells, compound 1 hr prior to succinate stimulation
Description: After the incubation, the cell suspension was centrifuged, and the supernatant was collected for downstream readouts of secreted factors including Prostaglandin D2 (PGD2) by ELISA (Cayman Chemical PGD2 EIA kit), and cytokines/chemokines TNFa, MIP1a and Eotaxin-3 by MSD (Mesoscale V-Plex Plus proinflammatory panel 1, Plus Chemokine Panel 1).
A GPR91 knockout in LUVA cells (received from Kerafast Inc) was generated using CRISPR technology with a single guide following protocols known in the art. The guide RNA sequence used was […] (SEQ ID NO: 4). The guide RNA cut location was chromosome 3: 151,880,674.

human hair follicles [6] = test: Versican immunofluorescence in dermal papilla of hair follicles; format: cell-based; details: healthy hair follicles
Excerpt: Versican immunofluorescence (as previously described in Soma et al J Dermatol Sci 2005, doi: 10.1016/j.jdermsci.2005.03.010) was used to determine hair follicle inductive properties.

human hair follicles [7] = test: Dermal papilla area and melanin clumping, Fontana-Masson stained ex vivo hair follicles; format: cell-based
Description: Microscopic hair cycle staging: Hair cycle staging is performed at the end of the culture and can be determined according to several established parameters as described previously. Hair follicles are microscopically evaluated for the hair cycle staging using Masson-Fontana histochemistry and Ki-67/TUNEL immunostaining as previously described. […] Melanin clumps are indicated on the images by the orange arrows, and are counted in the Masson-fontana stained section at the end of the culture in a defined region of interest starting at the Auber's line and including the precortical hair matrix as described previously.

GPR91 [8] = target: T1, GPR91; test: GTPyS G-protein functional assay; format: biochemical; parameters: host or cells: LUVA; details: read-out: Test compound pIC50, GTPyS (converted)
Excerpt: as §1

For `CN1CCN(Cc2ccc(-c3cccc(C(=O)Nc4ccccc4CC(=O)O)c3)cc2)CC1` [Compound 1, 2-(2-(4′-((4-methylpiperazin-1-yl)methyl)-[1,1′-biphenyl]-3-carboxamido)phenyl)acetic acid], the IC50 (GPR91 [1]) was 100 nM, the “percentage of hair follicles in the anagen phase” value (human hair follicles [2]) was “increases the percentage of hair follicles in the anagen phase” and the IC50 (GPR91 [3]) was 39.8 nM. The “genes of apoptotic processes, cell chemotaxis and immune function” value (human hair follicles [4]) was “significant downregulation in genes that play a role in apoptotic processes, cell chemotaxis and immune function”, the “genes related to metabolic processes and biosynthesis of macromolecules” value (human hair follicles [4]) was “increase in genes related to increased metabolic processes and biosynthesis of macromolecules” and the “hair keratins gene expression” value (human hair follicles [4]) was “significant upregulation in hair keratins”. The “Test compound pIC50, PGD2” value (GPR91 [5]) was 7.6, the IC50 (GPR91 [5]; read-out: Test compound pIC50, MIP-1a (converted)) was 79.4 nM and the “versican expression in the dermal papilla” value (human hair follicles [6]) was “Increased versican expression”. The “size of the dermal papilla area, representative images” value (human hair follicles [7]; 5 uM and 50 uM) was “increased size of the dermal papilla area”, the “dermal papilla area, AGA” value (human hair follicles [7]; AGA hair follicles, affected/balding region of the scalp) was “increases the dermal papilla area” and the dermal papilla area (human hair follicles [7]; healthy hair follicles) was “increases the dermal papilla area”. The IC50 (GPR91 [8]) was 31.6 nM.
